Reference: US4492693A, “Benzothienylglycyl cephalosporin derivatives” (priority 1983, dated 1985)
Where two headings read alike, the source gives them in different places.

Assays:
Assay type in all cases: cell-based
E. coli = test: Agar Dilution MIC (Table I); conditions: Escherichia coli
Strep. A = test: Agar Dilution MIC (Table I); conditions: strain C203; read-out: Agar Dilution MIC
Staph. aureus [1] = test: Expanded Spectrum MIC (Table II); conditions: Staphylococcus aureus
From the text: (§1) A typical and preferred compound provided by this invention is 7-(3-benzothienyl)glycylamido-3-methyl-3-cephem-4-carboxylic acid, the compound illustrated in Example 9. The antibacterial activity of this compound has been determined in standard in vitro agar dilution assays against a variety of gram positive and gram negative microorganism. The following Tables present typical minimum inhibitory concentrations (MIC's) in μg/ml for several compounds of the invention when evaluated against the indicated microorganisms. MIC's for several known compounds are also presented for comparison.
(§2) Expanded Spectrum MIC (μg/ml)

H. influenzae = test: Expanded Spectrum MIC (Table II); conditions: Haemophilus influenzae
From the text: as §1, §2

Staph. epi [2] = test: Expanded Spectrum MIC (Table II)
From the text: as §1, §2

H. influ. = test: Agar Dilution MIC (Table I); conditions: read-out: Agar Dilution MIC
Staph. epi [3] = test: Agar Dilution MIC (Table I); conditions: read-out: Agar Dilution MIC
Strep. PN = test: Agar Dilution MIC (Table I); conditions: strain PARK
Staph. aureus [4] = test: Agar Dilution MIC (Table I); conditions: Staphylococcus aureus, read-out: Agar Dilution MIC
Strep. D = test: Agar Dilution MIC (Table I); conditions: read-out: Agar Dilution MIC
From the text: as §1
Agar Dilution MIC (μg/ml)

[5] = system: Bacteroides thetaiotaomicron; test: Susceptibility of Anaerobic Bacteroides Isolates by the Agar-Dilution Method (Table III); conditions: 24 h
From the text: as §1
(§3) Susceptibility of Anaerobic Bacteroides Isolates by the
(§4) Agar-Dilution Method MIC (μg/ml) readings 24 hrs. after incubation

Bacteroides corrodens = test: as above; conditions: Eikenella corrodens; strain 1874; readings 24 hrs. after incubation
From the text: as §1, §3, §4

Bacteroides fragilis = test: as above; conditions: 24 h
From the text: as §1, §3, §4

Klebsiella = test: Agar Dilution MIC (Table I); conditions: Klebsiella, read-out: Agar Dilution MIC
[6] = strain 1438, readings 24 hrs. after incubation
[7] = strain 1900A, readings 24 hrs. after incubation
[8] = strain 9, readings 24 hrs. after incubation
[9] = strain 103, readings 24 hrs. after incubation
[10] = strain 104, readings 24 hrs. after incubation
[11] = strain 106, readings 24 hrs. after incubation
[12] = strain 107, readings 24 hrs. after incubation
[13] = strain 108, readings 24 hrs. after incubation
[14] = strain 110, readings 24 hrs. after incubation
[15] = strain 111, readings 24 hrs. after incubation
[16] = strain 1877, readings 24 hrs. after incubation

Measured: MIC

CC1=C(C(=O)O)N2C(=O)C(NC(=O)[C@H](N)c3csc4cc(F)ccc34)C2SC1 (stereo partly drawn) [Ex. 17, D-7-(6-Fluoro-3-benzothienyl)glycylamido-3-methyl-3-cephem-4-carboxylic acid]
2 µg/mL: H. influenzae; strain C.L. | Staph. epi [2]; strain 269 | Staph. epi [2]; strain 270 | H. influ.; strain C.L. | Staph. epi [3]; strain 222 | Bacteroides fragilis; [10] | Klebsiella; strain X26
4 µg/mL: Staph. epi [2]; strain EPI1 | Staph. epi [3]; strain EPI1 | Bacteroides fragilis; [8] | Bacteroides fragilis; [11] | Bacteroides fragilis; [13] | Bacteroides fragilis; [14]
8 µg/mL: Staph. aureus [4]; strain V41 | [5]; [6] | Bacteroides fragilis; [12] | Bacteroides fragilis; [16]
0.25 µg/mL: H. influenzae; strain 1683 | Staph. epi [2]; strain 286
1 µg/mL: Staph. aureus [1]; strain S224 | Staph. aureus [1]; strain S225 | Staph. aureus [1]; strain S226 | Staph. aureus [1]; strain S227 | Staph. aureus [1]; strain S229 | Staph. aureus [1]; strain S230 | Staph. aureus [1]; strain S234 | Staph. aureus [1]; strain S237 | Staph. aureus [1]; strain S238 | Staph. aureus [1]; strain S239 | H. influenzae; strain 76 | H. influenzae; strain 169 | H. influenzae; strain 171 | H. influenzae; strain HESS | Staph. epi [2]; strain 285 | Staph. aureus [4]; strain X1.1
32 µg/mL: [5]; [7] | Bacteroides fragilis; [15]
16 µg/mL: Bacteroides corrodens | Bacteroides fragilis; [9]
0.5 µg/mL: Staph. aureus [1]; strain S228 | Staph. aureus [1]; strain S231 | H. influenzae; strain 105 | H. influenzae; strain 158 | H. influenzae; strain 164 | H. influenzae; strain 312 | H. influenzae; strain 1930 | H. influenzae; strain 4842 | H. influenzae; strain M370 | H. influenzae; strain M371 | Staph. epi [2]; strain 219 | H. influ.; strain 76 | Strep. PN
128 µg/mL: E. coli; strain N10 | Strep. D; strain X66 | Klebsiella; strain KAE | Klebsiella; strain X68
0.125 µg/mL: Strep. A
64 µg/mL: E. coli; strain EC14 | E. coli; strain TEM | H. influenzae; strain M366 | H. influenzae; strain R465 | H. influenzae; strain STEL | Staph. aureus [4]; strain X400 | Strep. D; strain 2041

CC1=C(C(=O)O)N2C(=O)C(NC(=O)[C@H](N)c3csc4ccc(F)cc34)C2SC1 (stereo partly drawn) [Ex. 18, D-7-(5-Fluoro-3-benzothienyl)glycylamido-3-methyl-3-cephem-4-carboxylic acid]
32 µg/mL: [5]; [7]
16 µg/mL: [5]; [6] | Bacteroides fragilis; [10] | Bacteroides fragilis; [11] | Bacteroides fragilis; [12] | Bacteroides fragilis; [13] | Bacteroides fragilis; [14] | Bacteroides fragilis; [16]
128 µg/mL: E. coli; strain N10 | Strep. D; strain 2041 | Strep. D; strain X66 | Bacteroides fragilis; [15] | Klebsiella; strain KAE | Klebsiella; strain X68
4 µg/mL: Staph. epi [2]; strain 269 | Staph. epi [2]; strain 270 | H. influ.; strain C.L. | Staph. epi [3]; strain 222 | Klebsiella; strain X26
2 µg/mL: Staph. aureus [1]; strain S226 | Staph. aureus [1]; strain S227 | Staph. aureus [1]; strain S229 | Staph. aureus [1]; strain S234 | Staph. aureus [1]; strain S237 | Staph. aureus [1]; strain S238 | Staph. aureus [1]; strain S239 | H. influenzae; strain C.L. | H. influenzae; strain HESS | Staph. epi [2]; strain 285
64 µg/mL: E. coli; strain EC14 | E. coli; strain TEM | H. influenzae; strain M366 | H. influenzae; strain R465 | H. influenzae; strain STEL | Staph. aureus [4]; strain X400 | Bacteroides corrodens | Bacteroides fragilis; [9]
1 µg/mL: Staph. aureus [1]; strain S224 | Staph. aureus [1]; strain S225 | Staph. aureus [1]; strain S228 | Staph. aureus [1]; strain S230 | Staph. aureus [1]; strain S231 | H. influenzae; strain 76 | H. influenzae; strain 105 | H. influenzae; strain 158 | H. influenzae; strain 164 | H. influenzae; strain 169 | H. influenzae; strain 171 | H. influenzae; strain 312 | H. influenzae; strain 1930 | H. influenzae; strain 4842 | H. influenzae; strain M370 | H. influenzae; strain M371 | Staph. epi [2]; strain 219 | Staph. epi [2]; strain 286 | H. influ.; strain 76 | Strep. PN | Staph. aureus [4]; strain X1.1
0.25 µg/mL: Strep. A | H. influenzae; strain 1683
8 µg/mL: Staph. epi [2]; strain EPI1 | Staph. epi [3]; strain EPI1 | Staph. aureus [4]; strain V41 | Bacteroides fragilis; [8]
